# From patent US20230043863A1, “HETEROAROMATIC DERIVATIVES FOR USE AS REGULATOR, PREPARATION METHOD THEREFOR AND USE THEREOF” (JIANGSU HANSOH PHARMACEUTICAL GROUP CO., LTD., priority 2018, published 2023)
# Read-outs that look alike come from different tables or passages of the source.
# Assay: Balb/C mouse pharmacokinetics (plasma, colon, ileum)
# Format: in vivo
# Details: male, po, Balb/C mice, p.o. 5 mg/kg; for Cmax: read-out: Blood concentration Cmax; for AUC(0-t): read-out: Curve area AUC0-t; for MRT: read-out: Mean detention time MRT; for Tmax: read-out: Time to peak tmax; for AUC(0-inf): read-out: Curve area AUC0-∞; for half-life: read-out: Half life period t1/2 (converted)
# In short: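 Male Balb/C mice (12 per group), fasted overnight, given 5 mg/kg p.o.; plasma, ileum and colon sampled at 0–7 h. Drug levels by LC/MS/MS, […]; parameters include colon/ileum and colon/plasma concentration ratios.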
Structure (SMILES),Cmax (colon) [ng/mL],AUC(0-t) (colon) [ng·h/mL],MRT (colon) [h],Tmax (colon) [h],Cmax (ileum) [ng/mL],AUC(0-t) (ileum) [ng·h/mL],AUC(0-inf) (ileum) [ng·h/mL],half-life (ileum) [h],MRT (ileum) [h],Tmax (ileum) [h],"Cmax (plasma, blood) [ng/mL]","AUC(0-t) (plasma, blood) [ng·h/mL]","AUC(0-inf) (plasma, blood) [ng·h/mL]","half-life (plasma, blood) [h]","MRT (plasma, blood) [h]","Tmax (plasma, blood) [h]"
"CNCC(=O)N1[C@@H]2CCC[C@H]1C[C@H](Nc1nc(Nc3cc(C)[nH]n3)c3ccsc3n1)C2 [Embodiment 247, 1-((3-exo)-3-((4-((5-methyl-1H-pyrazol-3-yl)amino)thieno[2,3-d]pyrimidin-2-yl)amino)-9-azabicyclo[3.3.1]non-9-yl)-2-(methylamino)-ethane-1-one]",2270,10200,4.05,3,13800,24700,24900,0.92,1.39,1,,,,,,
"Cc1cc(Nc2nc(N(C)[C@@H]3C[C@H]4CCC[C@@H](C3)N4C(=O)CN3CCN(C)CC3)nc3sccc23)n[nH]1 [Embodiment 257, 1-((3-exo)-3-(methyl(4-((5-methyl-1H-pyrazol-3-yl)amino)thieno[2,3-d]pyrimidin-2-yl)amino)-9-azabicyclo[3.3.1]non-9-yl)-2-(4-methylpiperazin-1-yl)ethane-1-one]",3990,12300,4.24,5,25800,104000,123000,1.98,3.07,3,33.9,64.7,64.8,1.22,2.18,1
"Cc1cc(Nc2nc(N[C@@H]3C[C@H]4CCC[C@@H](C3)N4C(=O)c3ccccn3)nc3sccc23)n[nH]1 [Embodiment 260, ((3-exo)-3-((4-((5-methyl-1H-pyrazol-3-yl)amino)thieno[2,3-d]pyrimidin-2-yl)amino)-9-azabicyclo[3.3.1]non-9-yl)(pyridin-2-yl)methanone]",8880,24400,3.39,3,9080,18500,18700,1.01,1.57,1,24,27.3,29.4,1.57,1.37,1
"Cc1cc(Nc2nc(N[C@@H]3C[C@H]4CC[C@@H](C3)N4CCC#N)nc3sc(C)cc23)n[nH]1 [Embodiment 277, 3-((3-exo)-3-((6-methyl-4-((5-methyl-1H-pyrazol-3-yl)amino)thieno[2,3-d]pyrimidin-2-yl)amino)-8-azabicyclo[3.2.1]oct-8-yl)propionitrile]",649,2890,3.89,7,18700,43000,43300,0.92,1.77,1,12,29.1,31.1,0.96,2.53,2
"Cc1cc(Nc2nc(N[C@@H]3C[C@H]4CCC[C@@H](C3)N4CCC#N)nc3scnc23)n[nH]1 [Embodiment 278, 3-((3-exo)-3-((7-((5-methyl-1H-pyrazol-3-yl)amino)thiazolo[5,4-d]pyrimidin-5-yl)amino)-9-azabicyclo[3.3.1]non-9-yl)propionitrile]",1300,4640,4.26,5,3700,6240,6260,0.95,1.28,1,1.79,3.62,,,1.5,0.5
